Patent US11026426B2, “Oxadiazole and phenol derivatives as antibacterial and/or herbicidal agents” (NORTHERN ILLINOIS RESEARCH FOUNDATION, priority 2017, dated 2021)

How the values were obtained:
Klebsiella pneumonia = test: Antibacterial preliminary screening KP; type: cell-based; conditions: score 0-3; note: key: 0 represents no inhibition; 3 is comparable to commercial antibiotic control
Corynebacterium xerosis = test: Antibacterial preliminary screening CX; type: cell-based; conditions: score 0-3; note: key: 0 represents no inhibition; 3 is comparable to commercial antibiotic control
lettuce seeds = test: Lettuce leaf assay; type: in vivo; design: key: 0 (no effect); 5(complete inhibition or bleaching); conditions: ranking 0-5
Outline: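 Qualitative assay: compounds in volatile organic solvent applied to filter paper in a petri dish, solvent evaporated, lettuce seeds and 5 mL water added to give test concentrations. Germination, root development and leaf bleaching scored days 3 and 4, ranked 0 (no effect) to 5 (complete inhibition or bleaching).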

Pseudomonas aeruginosa = test: Antibacterial preliminary screening PA; type: cell-based; conditions: for PA score: score 0-3
[1] = test system: Burkholderia thailandensis; type: cell-based; conditions: preliminary screening; for BT score: score 0-3
Mycobacterium smegmatis = test: Antibacterial preliminary screening MS; type: cell-based; conditions: for MS score: score 0-3
AtIspD = AtIspD (Arabidopsis thaliana, UniProt P69834); test: University of Hamburg photometric enzymatic inhibition assay AtIspD; type: biochemical; conditions: read-out: AtIspD IC50
Chain of AtIspD (P69834 62-302): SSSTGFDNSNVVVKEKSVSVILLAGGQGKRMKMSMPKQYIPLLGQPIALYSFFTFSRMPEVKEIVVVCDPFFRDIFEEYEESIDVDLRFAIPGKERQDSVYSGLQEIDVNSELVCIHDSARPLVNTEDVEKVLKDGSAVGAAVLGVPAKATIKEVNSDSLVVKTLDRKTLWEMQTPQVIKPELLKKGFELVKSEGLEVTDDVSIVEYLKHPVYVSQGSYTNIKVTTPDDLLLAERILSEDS
Outline: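 Coupled photometric assay: 2.4 mU AtIspD with 1 mM (2R,3S)-2,3-dihydroxy-4-oxopentyl phosphate, 2.1 mM CTP, excess IspE (0.4 U), ATP, pyruvate kinase/lactate dehydrogenase and 460 μM NADH. Run in 100 mM Tris-HCl pH 8.0, 10 mM MgCl2, 1 mM DTT, 1.1% DMSO at 27 °C, monitored photometrically.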

[2] = molecular target: Lycopersicon esculentum IspE (LeIspE) (Solanum lycopersicum, UniProt P93841); test: Thermal shift assay against LeIspE; type: binding
Chain of Lycopersicon esculentum IspE (LeIspE) (P93841 89-401): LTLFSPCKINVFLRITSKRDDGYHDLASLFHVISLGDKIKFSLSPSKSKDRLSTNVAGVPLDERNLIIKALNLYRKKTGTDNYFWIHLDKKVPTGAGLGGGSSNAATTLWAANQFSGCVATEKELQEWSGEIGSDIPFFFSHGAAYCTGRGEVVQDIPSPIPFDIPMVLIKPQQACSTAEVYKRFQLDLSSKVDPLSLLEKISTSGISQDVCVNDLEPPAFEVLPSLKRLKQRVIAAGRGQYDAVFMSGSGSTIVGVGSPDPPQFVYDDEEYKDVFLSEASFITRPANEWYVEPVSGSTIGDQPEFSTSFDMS

AtIspF = AtIspF (Arabidopsis thaliana, UniProt Q9CAK8); test: University of Hamburg photometric enzymatic inhibition assay AtIspF; type: biochemical; conditions: read-out: AtIspF IC50
Chain of AtIspF (Q9CAK8 53-231): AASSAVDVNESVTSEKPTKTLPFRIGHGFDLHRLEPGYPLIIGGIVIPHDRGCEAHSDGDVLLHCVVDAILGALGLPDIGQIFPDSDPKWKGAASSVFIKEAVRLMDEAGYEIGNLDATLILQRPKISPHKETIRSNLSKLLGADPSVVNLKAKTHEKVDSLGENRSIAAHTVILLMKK
Outline: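 Coupled photometric assay (CMP kinase/pyruvate kinase/lactate dehydrogenase, NADH consumption) with 2.4 mU AtIspF and 1 mM 4-diphosphocytidyl-2C-methylerythritol 2-phosphate, 2 mM ATP, in 100 mM Tris-HCl pH 8.0, 10 mM MgCl2, 1.1% DMSO. Monitored at 27 °C.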

[3] = molecular target: T1, Mycobacterium tuberculosis IspD (MtIspD) (Mycobacterium tuberculosis, UniProt P9WKG9); test: Thermal shift assay against MtIspD; type: binding
T1 sequence (P9WKG9 1-231): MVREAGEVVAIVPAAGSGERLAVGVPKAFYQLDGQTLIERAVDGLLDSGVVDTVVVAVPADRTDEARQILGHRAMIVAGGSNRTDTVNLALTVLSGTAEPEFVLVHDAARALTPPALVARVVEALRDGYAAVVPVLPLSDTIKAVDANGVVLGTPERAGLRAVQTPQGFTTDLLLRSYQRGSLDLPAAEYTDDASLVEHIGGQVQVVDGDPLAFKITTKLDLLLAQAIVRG

Micrococcus luteus = test: Antibacterial preliminary screening ML; type: cell-based; conditions: score 0-3; note: key: 0 represents no inhibition; 3 is comparable to commercial antibiotic control
Bacillus cereus = test: Antibacterial preliminary screening BC; type: cell-based; conditions: score 0-3; note: key: 0 represents no inhibition; 3 is comparable to commercial antibiotic control
[4] = test system: Corynebacterium pseudodiphtheriae; test: Antibacterial preliminary screening CP; type: cell-based; conditions: score 0-3;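 note: 0 is no inhibition and 3 matches the commercial antibiotic control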
Escherichia coli = test: Antibacterial preliminary screening EC; type: cell-based; conditions: score 0-3; note: key: 0 represents no inhibition; 3 is comparable to commercial antibiotic control
LeIspE = LeIspE (Solanum lycopersicum, UniProt P93841); test: University of Hamburg photometric enzymatic inhibition assay LeIspE; type: biochemical, Lycopersicon esculentum; conditions: read-out: LeIspE IC50
Chain of LeIspE (P93841 89-401): as the sequence (P93841 89-401) above
Outline: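 Photometric coupled assay with pyruvate kinase/lactate dehydrogenase following NADH (460 μM). Mix: 100 mM Tris-HCl pH 8.0, 10 mM MgCl2, 1 mM DTT, 2.5 mM phosphoenolpyruvate, 2 mM ATP, 1 mM 4-diphosphocytidyl-2-C-methylerythritol, 1.1% DMSO, 2.4 mU IspE; incubated at 27° C.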

Compound	KP score (Klebsiella pneumonia)	CX score (Corynebacterium xerosis)	Bleaching (lettuce seeds; 0.15 mM)	Germination (lettuce seeds; 0.15 mM)	Root Dev. (lettuce seeds; 0.15 mM)	PA score (Pseudomonas aeruginosa)	melting point [°C]	BT score [1]	MS score (Mycobacterium smegmatis)	IC50 (AtIspD) [µM]	LeIspE melting point change [2] [°C]	LeIspE melting temp [2] [°C]	IC50 (AtIspF) [µM]	MtIspD melting temp [3] [°C]	ML score (Micrococcus luteus)	BC score (Bacillus cereus)	CP score [4]	EC score (Escherichia coli)	IC50 (LeIspE) [µM]	MtIspD melting point change [3] [°C]	further results
COc1ccc(-c2nnc(-c3nc4ccccc4s3)o2)cc1 [HGN-336, 2-(benzo[d]thiazol-2-yl)-5-(4-methoxyphenyl)-1,3,4-oxadiazole]	0	0	0	1	0	0	167 to 169	0	0	> 500	−1.25	48.25	> 500	49.5	0	0	0	0	493 ± 49	–	Bleaching (lettuce seeds; 0.3 mM): 0; Germination (lettuce seeds; 0.3 mM): 0; Root Dev. (lettuce seeds; 0.3 mM): 0
Cc1ccc(-c2nnc(-c3cc4ccccc4[nH]3)o2)cc1 [HGN-242, 2-(1H-indol-2-yl)-5-(p-tolyl)-1,3,4-oxadiazole]	0	0	–	–	–	0	228 to 234	0	0	225 ± 17	−1.75	47.75	> 1000	48.8	0	0	0	0	109 ± 35	0.8	Bleaching (lettuce seeds; 0.5 mM): 0; Germination (lettuce seeds; 0.5 mM): 2; Root Dev. (lettuce seeds; 0.5 mM): 0; Bleaching (lettuce seeds; 1.0 mM): 0; Germination (lettuce seeds; 1.0 mM): 4; Root Dev. (lettuce seeds; 1.0 mM): 0
C(=C\c1nnc(-c2nc3ccccc3s2)o1)/c1ccccc1 [HGN-335, (E)-2-(benzo[d]thiazol-2-yl)-5-styryl-1,3,4-oxadiazole]	0	0	–	–	–	1	202 to 204	0	0	> 500	−1.50	48.00	> 500	48.5	0	0	0	0	> 500	0.5	Bleaching (lettuce seeds; 0.1 mM): 0; Germination (lettuce seeds; 0.1 mM): 0; Root Dev. (lettuce seeds; 0.1 mM): 0; Bleaching (lettuce seeds; 0.2 mM): 0; Germination (lettuce seeds; 0.2 mM): 0; Root Dev. (lettuce seeds; 0.2 mM): 0; effectiveness against Pseudomonas aeruginosa (Pseudomonas aeruginosa): slightly effective
FC(F)(F)c1ccc(-c2nnc(-c3nc4ccccc4s3)o2)cc1 [HGN-337, 2-(benzo[d]thiazol-2-yl)-5-(4-(trifluoromethyl)phenyl)-1,3,4-oxadiazole]	0	0	0	0	0	0	145 to 148	0	0	> 500	−1.75	47.75	> 500	48.8	0	0	0	0	> 500	0.8	Bleaching (lettuce seeds; 0.3 mM): 0; Germination (lettuce seeds; 0.3 mM): 0; Root Dev. (lettuce seeds; 0.3 mM): 0
c1ccc(CCc2nnc(-c3cc4ccccc4[nH]3)o2)cc1 [HGN-215, 2-(1H-indol-2-yl)-5-phenethyl-1,3,4-oxadiazole]	0	0	0	0	0	0	161 to 164	0	0	> 1000	−2.00	47.50	> 1000	48.8	0	0	0	0	430 ± 48	0.8	Bleaching (lettuce seeds; 0.3 mM): 0; Germination (lettuce seeds; 0.3 mM): 0; Root Dev. (lettuce seeds; 0.3 mM): 0
Oc1c(Br)cc(Br)cc1-c1cc2ccccc2[nH]1 [HGN-340, 2,4-dibromo-6-(1H-indol-2-yl)phenol]	0	0	0	0	0	0	104 to 110	0	0	50	0.50	50.00	470 ± 116	49.3	0	2	0	0	> 500	1.3	Bleaching (lettuce seeds; 0.3 mM): 0; Germination (lettuce seeds; 0.3 mM): 0; Root Dev. (lettuce seeds; 0.3 mM): 0; effectiveness against Pseudomonas aeruginosa (Pseudomonas aeruginosa): moderately effective
Clc1ccc(-c2nnc(-c3nc4ccccc4[nH]3)o2)cc1 [HGN-421, 2-(1H-benzo[d]imidazole-2-yl)-5-(4-chlorophenyl)-1,3,4-oxadiazole]	0	0	0	1	0	0	250 to 255	1	1	88	−1.50	48.00	484 ± 95	48.8	0	0	0	0	298 ± 49	0.8	Bleaching (lettuce seeds; 0.3 mM): 0; Germination (lettuce seeds; 0.3 mM): 1; Root Dev. (lettuce seeds; 0.3 mM): 0; antibacterial activity against Burkholderia thailandensis [1]: slight antibacterial activity; antibacterial activity against Mycobacterium smegmatis (Mycobacterium smegmatis): slight antibacterial activity
CC(C)(C)c1nnc(-c2cc3ccccc3[nH]2)o1 [HGN-239, 2-(tert-butyl)-5-(1H-indol-2-yl)-1,3,4-oxadiazole]	0	0	–	–	–	0	163 to 168	0	0	> 1000	−2.50	47.00	> 1000	49.5	0	0	0	0	> 1000	–	Bleaching (lettuce seeds; 0.5 mM): 0; Germination (lettuce seeds; 0.5 mM): 0; Root Dev. (lettuce seeds; 0.5 mM): 0; Bleaching (lettuce seeds; 1.0 mM): 0; Germination (lettuce seeds; 1.0 mM): 1; Root Dev. (lettuce seeds; 1.0 mM): 0
c1ccc2[nH]c(-c3nnc(C4CCCCC4)o3)cc2c1 [HGN-254, 2-cyclohexyl-5-(1H-indol-2-yl)-1,3,4-oxadiazole]	0	0	0	0	0	0	187 to 193	0	0	322	−2.00	47.50	> 1000	48.5	0	0	0	0	> 1000	0.5	Bleaching (lettuce seeds; 0.3 mM): 0; Germination (lettuce seeds; 0.3 mM): 0; Root Dev. (lettuce seeds; 0.3 mM): 0
